This note sets out measurements from PubChem BioAssay (NCI).

Holding throughout (experiment): growth of human tumour cells (NCI), 48 h
Assay [1] has as its system MDA-N.
Assay [2] concerns NCI-H460 lung.
Assay [3] concerns OVCAR-3 ovarian.
Assay [4] relates to HCT-116 colon.
Assay [5] has as its system COLO 205 colon.
Assay [6] concerns RXF 393 renal.
Assay [7] deals with U251 CNS.
The subject of assay [8] is M14 melanoma.
The test system of assay [9] is DU-145 prostate.
Assay [10] concerns 786-0 renal.
Assay [11] has as its system BT-549 breast.

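Assay format: 96-well plates, 48-hour exposure. GI50 is the concentration that inhibits growth by half. At the TGI there is no net growth.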

Take `Cc1ccc2oc3c(ccc(=O)n3C)c(=O)c2c1`: the TGI in assay [1], in assay [2], in assay [3], in [4], in assay [5] and in assay [6] was more than 100 µM each time. Also, the TGI in assay [7], in [8] and in [9] was more than 100 µM each time.
As to `CC1CCN(c2cc(-c3cc4ccccc4o3)oc(=O)c2C#N)CC1`, the TGI in [2], in assay [4], in assay [5], in assay [6], in assay [7] and in assay [8] was more than 100 µM each time.
On to `COC(=O)c1cc2ccccc2c2nc3ccccc3c(Cl)c12`, for which the TGI in [10], in assay [3], in assay [4], in assay [5], in assay [6] and in assay [7] was more than 100 µM throughout. The same compound returned a TGI in assay [8] of more than 100 µM.
Turning to `CC1=C2CC(C)(C)CC(=O)C2(C)CCC1=O` (stereo not drawn), the TGI in assay [1], in assay [10], in [11], in [2], in [4] and in [5] was more than 100 µM each time. Besides, the TGI in [7], in [8] and in assay [9] was more than 100 µM in each case.
Consider `O/N=C1\CSc2ccccc2C1`, for which the TGI in assay [1], in [10], in assay [2], in [3], in assay [4] and in assay [5] was more than 100 µM in each case. Also, the TGI in [6], in assay [7], in assay [8] and in assay [9] was more than 100 µM each time.
For the compound `O=c1[nH]nc(Cc2ccccc2)n1C1CC1`, the TGI in [1], in assay [10], in assay [2], in assay [3], in [4] and in assay [5] was more than 100 µM in each case. Besides, the TGI in [6], in assay [7], in [8] and in [9] was more than 100 µM throughout.
As for `Nc1c(C(=O)c2ccccc2)nnc2ccccc12`, the TGI in assay [10] is more than 100 µM; in assay [11] it was 72.7 µM; in [2], 67.1 µM; in assay [4], 71.6 µM; in [5], 36 µM; in assay [7], more than 100 µM. In addition, the TGI in [8] is more than 100 µM; in assay [9], 69.9 µM.
Turning to `CC(=O)Nc1sccc1S(=O)(=O)c1ccc(Cl)cc1`, the TGI in assay [10], in assay [11], in assay [2], in assay [3], in assay [4] and in assay [5] was more than 100 µM each time. Moreover, the TGI in [6], in assay [7], in assay [8] and in assay [9] was more than 100 µM throughout.
Consider `O=C(O)Cc1ccc(Oc2nc3ccccc3nc2-c2ccccc2)cc1`, for which the TGI was more than 100 µM in assay [10]; more than 100 µM in [11]; more than 100 µM in [2]; 65.6 µM in [3]; more than 100 µM in assay [4]; more than 100 µM in assay [5]. In addition, the TGI in assay [6] is 98.2 µM; in assay [7] it was more than 100 µM; in [8], more than 100 µM; in [9], more than 100 µM.
Regarding `CCOc1cc(/C=C/C(=O)CC(=O)/C=C/c2ccc(OC(=O)CNCCN(CC)CC)c(OCC)c2)ccc1OC(=O)CNCCN(CC)CC`, the GI50 in assay [11] was 1.45 µM; in assay [3] it was 2.24 µM; in [4] it was 1.2 µM; in [5], 1.88 µM; in [6], 0.681 µM; in assay [7], 1.27 µM. Moreover, the GI50 in [8] is 1.74 µM; in assay [9], 1.61 µM. Also, the TGI in [11] came to 3.52 µM; in [3], 6.07 µM; in [4] it was 2.61 µM; in assay [5] it was 4.58 µM; in [6] it was 2.03 µM; in assay [7], 2.82 µM. For the same compound, the TGI in [8] turned out to be 4.23 µM; in [9] it was 3.56 µM.
Turning to `CO[C@]12C[C@@H](CNC(=O)c3cc(Br)c[nH]3)O[C@H]1NC(=O)N2`, the TGI in assay [10], in assay [11], in assay [2], in [3], in assay [4] and in assay [5] was more than 100 µM in each case. Besides, the TGI in assay [7], in [8] and in assay [9] was more than 100 µM each time.
Regarding `CC(C)(CC1(C)NC(=O)NC1=O)OCc1ccccc1` (stereo not drawn), the TGI in assay [10], in [11], in [2], in assay [3], in assay [4] and in assay [6] was more than 100 µM in each case. For the same compound, the TGI in assay [7], in assay [8] and in assay [9] was more than 100 µM in each case.
On to `COc1ccc2nc(-c3ccc(O)cc3)ccc2c1`, for which the TGI in assay [10], in [2], in assay [3], in [4], in assay [5] and in assay [6] was more than 100 µM in each case. Moreover, the TGI in assay [8] was more than 100 µM.
As for `COC(=O)[C@]1(C)CCCC2(C)C3=C(CCC21)CC1(CC3)SCCS1` (stereo partly drawn), the TGI in [1], in assay [10], in assay [11], in assay [3], in assay [4] and in assay [5] was more than 10 µM throughout. Also, the TGI in assay [7], in [8] and in [9] was more than 10 µM in each case.
Take `CSc1nc(C)cc(=O)n1C1OC(COC(C)=O)C(OC(C)=O)C(OC(C)=O)C1OC(C)=O` (stereo not drawn): the TGI in [10], in [2], in assay [3], in assay [4], in assay [5] and in assay [7] was more than 100 µM in each case. In assay [8], this compound came in with a TGI of more than 100 µM.
For the compound `COC(=O)C1(Cc2ccccc2)Cc2c(C)ccc(C)c2C1=O` (stereo not drawn), the TGI in [1] is more than 100 µM; in assay [10], more than 100 µM; in [2], more than 100 µM; in [3] it was 85.1 µM; in assay [4], more than 100 µM; in [5] it was 25.4 µM. In addition, the TGI is 83.1 µM in [6], more than 100 µM in [7], 98.8 µM in assay [8] and more than 100 µM in [9].
`O[C@]12c3ccccc3C1CCCCC2N1CCOCC1` (stereo partly drawn): the TGI in assay [10], in assay [2], in assay [4], in [5], in assay [6] and in assay [7] was more than 100 µM in each case. In addition, the TGI in [8] was more than 100 µM.
Turning to `CCOC(=O)C1=C(C)N(CC(C)C)C2(O)C(OC)CC(=O)C3C(=O)N(c4ccccc4)C(=O)C132` (stereo not drawn), the TGI in [10], in assay [11], in [2], in assay [3], in assay [4] and in [5] was more than 100 µM in each case. In addition, the TGI in [6] is 54.5 µM; in assay [7] it was more than 100 µM; in assay [8], more than 100 µM; in assay [9], more than 100 µM.
As for `Clc1ccc(Cn2cc(/C=N/n3cnnc3)c3ccccc32)cc1`, the TGI in assay [10] was more than 100 µM; in assay [11] it was more than 100 µM; in assay [2], 75 µM; in assay [3], more than 100 µM; in assay [4] it was more than 100 µM; in assay [5] it was more than 100 µM. In addition, the TGI in assay [6] is 46.8 µM; in [7], more than 100 µM; in assay [8], more than 100 µM; in assay [9] it was more than 100 µM.
On to `Cc1cc2c3c(c1)CCCN3CCC2`, for which the TGI in assay [1], in assay [10], in [2], in [3], in assay [4] and in assay [5] was more than 10 µM throughout. The TGI in assay [6], in assay [7], in assay [8] and in assay [9] was more than 10 µM each time.
With `COc1cccc2c1[C@H]1OC(=O)NC1CCCCC2` (stereo partly drawn), the TGI in assay [10], in [2], in assay [3], in [4], in assay [5] and in assay [6] was more than 100 µM each time. Further, the TGI in assay [7] and in assay [8] was more than 100 µM throughout.
In the case of `CCN(CCCl)c1cc(CN(C)C)cc(NC(=O)c2cc(C(=O)Nc3cc(CN(C)C)cc(N(CC)CCCl)c3)n(C)n2)c1`, the TGI in [1] was determined as 2.55 µM; in assay [10] it was 0.261 µM; in assay [2] it was 0.4 µM; in assay [4], 1.3 µM; in assay [5], 2.05 µM; in [6], 2.08 µM. Besides, the values for the TGI in [7], in [8] and in assay [9] were 0.387 µM, 2.01 µM and 9.19 µM, respectively.
Take `Cc1cc(OC(=O)Nc2ccc(Cl)cc2)ccc1C(=S)Nc1ccccc1`: the TGI in assay [1], in assay [10], in assay [11], in assay [2], in assay [3] and in [4] was more than 100 µM throughout. Moreover, the TGI in [5], in assay [7] and in assay [8] was more than 100 µM in each case.
Consider `N=C(N)c1ccc(N=Nc2c(O)ccc3cc(O)ccc23)cc1`, for which the TGI in assay [10], in [11], in assay [2], in assay [3], in assay [4] and in assay [5] was more than 100 µM throughout. Moreover, the TGI in assay [6], in assay [7] and in [8] was more than 100 µM each time.
In the case of `Nc1ncnc2c1ncn2CCOC(c1ccccc1)P(=O)(O)O` (stereo not drawn), the TGI in [10], in [2], in [3], in assay [4], in assay [5] and in assay [6] was more than 100 µM each time. This compound showed a TGI in [7] of more than 100 µM.
`CC(N)=O.[Cl][Pt][Cl].[NH-]c1ccn(C2OC(CO)C(O)C2O)c(=O)n1` (stereo not drawn): the TGI in assay [10], in assay [11], in assay [2], in assay [3], in [4] and in [5] was more than 100 µM in each case. In addition, the TGI in [6], in assay [7], in [8] and in assay [9] was more than 100 µM each time.
Consider `CCN(CC)C(=S)SSCCO`, for which the GI50 in assay [11] was 16 µM; in assay [4], 14.6 µM; in [6], 19.4 µM; in assay [7], 16.7 µM; in assay [8] it was 14.2 µM; in [9] it was 37.8 µM. In addition, the TGI was 31.9 µM in assay [11]; 27.7 µM in assay [4]; 34.8 µM in assay [6]; 37.5 µM in assay [7]; 27.5 µM in [8]; more than 100 µM in [9].
Turning to `O=C(NN1C(=O)C(Cl)C1c1c(O)ccc2ccccc12)c1ccccc1O` (stereo not drawn), the TGI in assay [10], in assay [2], in assay [3], in assay [4], in assay [6] and in assay [7] was more than 100 µM in each case. In assay [8], this compound had a TGI of more than 100 µM.
Take `O=C([O-])C1([n+]2c(-c3ccccc3)cc(-c3ccccc3)cc2-c2ccccc2)CC1`: the TGI in assay [1], in assay [10], in assay [2], in [3], in [4] and in [6] was more than 100 µM throughout. The TGI in assay [7], in [8] and in assay [9] was more than 100 µM in each case.
